Laboratory results as given in PubChem BioAssay (NCI).
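The compound was tested at five concentrations on cells cultured in 96-well plates, with a 48-hour exposure period. The concentration for full growth arrest is given as TGI.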

Legend:
Test in all cases: NCI tumour cell line growth inhibition, 48 h
[1] = tested on: RPMI-8226 leukemia
[2] = tested on: HCT-116 colon
[3] = tested on: M14 melanoma
[4] = tested on: SK-MEL-28 melanoma
[5] = tested on: OVCAR-3 ovarian
[6] = tested on: KM12 colon
[7] = tested on: HT29 colon
[8] = tested on: KM20L2 colon
[9] = tested on: A549 NSCLC
[10] = tested on: HL-60(TB) leukemia
[11] = tested on: EKVX NSCLC
[12] = tested on: M19-MEL melanoma
[13] = tested on: HOP-92 NSCLC
[14] = tested on: MALME-3M melanoma
[15] = tested on: CCRF-CEM leukemia
[16] = tested on: LXFL 529 NSCLC
[17] = tested on: UACC-257 melanoma
[18] = tested on: SF-295 CNS
[19] = tested on: SW-620 colon
[20] = tested on: DMS 114 small cell lung
[21] = tested on: SN12C renal
[22] = tested on: SR leukemia
[23] = tested on: OVCAR-8 ovarian
[24] = tested on: SK-OV-3 ovarian
[25] = tested on: SK-MEL-2 melanoma
[26] = tested on: SNB-19 CNS
[27] = tested on: SNB-75 CNS
[28] = tested on: TK-10 renal
[29] = tested on: IGROV1 ovarian
[30] = tested on: COLO 205 colon
[31] = tested on: MOLT-4 leukemia
[32] = tested on: HOP-62 NSCLC
[33] = tested on: SK-MEL-5 melanoma
[34] = tested on: NCI-H522 lung
[35] = tested on: U251 CNS
[36] = tested on: XF 498 CNS
[37] = tested on: RXF 393 renal
[38] = tested on: SF-539 CNS
[39] = tested on: K-562 leukemia
[40] = tested on: UACC-62 melanoma
[41] = tested on: SF-268 CNS
[42] = tested on: UO-31 renal
[43] = tested on: OVCAR-4 ovarian
[44] = tested on: NCI-H23 lung
[45] = tested on: NCI-H460 lung
[46] = tested on: HOP-18 NSCLC
[47] = tested on: ACHN renal
[48] = tested on: DMS 273 small cell lung
[49] = tested on: SNB-78 CNS
[50] = tested on: HCC-2998 colon
[51] = tested on: LOX IMVI melanoma
[52] = tested on: 786-0 renal
[53] = tested on: OVCAR-5 ovarian
[54] = tested on: A498 renal
[55] = tested on: NCI-H226 lung
[56] = tested on: DLD-1 colon
[57] = tested on: HCT-15 colon
[58] = tested on: CAKI-1 renal

Measured: TGI

O=C1C(Cl)N(c2ccc(Cl)cc2Cl)C1c1c[nH]c2ccccc12 (centres undefined)
not listed: [46] | [47] | [48] | [49] | [50] | [51] | [52] | [53] | [54] | [55] | [56] | [57] | [58]
> 100 µM: all other assays above

CC1(C)c2ccccc2C(C)(C)C(C(=O)Nc2ccccc2)C1C(=O)O (centres undefined)
not listed: [22] | [29] | [36] | [43] | [45] | [57] | [58]
> 100 µM: all other assays above

O=C(c1cccs1)N(C(=S)N1CCN(c2ccccc2)CC1)C1CCCCC1
not listed: [11] | [36] | [50] | [54] | [55]
> 100 µM: all other assays above
